Measured values from PubChem BioAssay (NCI).
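Each compound was tested at five concentrations against cells in 96-well plates for 48 hours. TGI marks complete inhibition of growth.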 Where a SMILES comes first, the peptide text is derived from it.

Columns and labels:
Assay in all cases: NCI-60 cell line screen, 48 h
[1] = test system: A549 NSCLC
[2] = test system: ACHN renal
[3] = test system: HCT-116 colon
[4] = test system: HCT-15 colon
[5] = test system: LOX IMVI melanoma
[6] = test system: MCF7 breast
[7] = test system: MDA-MB-231 breast
[8] = test system: NCI-H226 lung
[9] = test system: NCI-H460 lung
[10] = test system: OVCAR-4 ovarian
[11] = test system: OVCAR-5 ovarian
[12] = test system: OVCAR-8 ovarian
[13] = test system: RPMI-8226 leukemia
[14] = test system: SF-268 CNS
[15] = test system: SK-OV-3 ovarian
[16] = test system: SNB-75 CNS
[17] = test system: SW-620 colon
[18] = test system: U251 CNS
[19] = test system: UO-31 renal
[20] = test system: A498 renal

| SMILES | TGI [1] [µM] | TGI [2] [µM] | TGI [3] [µM] | TGI [4] [µM] | TGI [5] [µM] | TGI [6] [µM] | TGI [7] [µM] | TGI [8] [µM] | TGI [9] [µM] | TGI [10] [µM] | TGI [11] [µM] | TGI [12] [µM] | TGI [13] [µM] | TGI [14] [µM] | TGI [15] [µM] | TGI [16] [µM] | TGI [17] [µM] | TGI [18] [µM] | TGI [19] [µM] | TGI [20] [µM] |
| --- | --- | --- | --- | --- | --- | --- | --- | --- | --- | --- | --- | --- | --- | --- | --- | --- | --- | --- | --- | --- |
| CN(NC(=O)/C(=C\c1ccco1)NC(=O)c1ccccc1)c1cn[nH]c(=O)c1Cl | > 100 | > 100 | > 100 | > 100 | 58.2 | > 100 | > 100 | > 100 | > 100 | > 100 | > 100 | > 100 | 50.5 | > 100 | > 100 | 84.2 | > 100 | > 100 | > 100 | – |
| COc1ccc(CCNC(=O)CCc2ccccc2CO)cc1OC | > 100 | > 100 | > 100 | > 100 | – | > 100 | > 100 | > 100 | > 100 | > 100 | > 100 | > 100 | > 100 | > 100 | > 100 | > 100 | > 100 | > 100 | > 100 | > 100 |
| COC(=O)c1ccccc1C1CN=NC12Cc1cc(C)c(C)cc1C2=O (stereo not drawn) | > 100 | > 100 | > 100 | > 100 | 92.7 | 65 | > 100 | > 100 | > 100 | > 100 | > 100 | > 100 | – | > 100 | > 100 | > 100 | > 100 | > 100 | > 100 | > 100 |
| CCOP(=O)(OCC)[C@]12C[C@@H](C)C=C[C@H]1COC2=O | > 100 | > 100 | > 100 | – | > 100 | > 100 | > 100 | – | > 100 | > 100 | > 100 | > 100 | > 100 | > 100 | > 100 | > 100 | > 100 | > 100 | > 100 | > 100 |
| Cc1cc(=O)oc2c3c(ccc12)OC(c1ccc(Br)cc1)CC3=O (stereo not drawn) | 34.8 | 29.4 | 23.8 | 34.2 | 14.6 | 12.7 | 37.8 | 38.2 | 36.8 | > 100 | 31.4 | 33.7 | > 100 | 32.1 | 30.3 | 18.6 | 23.9 | 18.3 | 21.9 | – |
| CCOC(=O)C1=COC(C)(c2ccccc2)CC1=O (stereo not drawn) | > 100 | > 100 | > 100 | > 100 | – | > 100 | > 100 | – | > 100 | > 100 | > 100 | > 100 | > 100 | > 100 | > 100 | > 100 | > 100 | > 100 | > 100 | > 100 |
| CN(C)CCc1ccnc2nc(-c3ccc4ccccc4c3)cn12 | > 100 | > 100 | > 100 | > 100 | 65 | > 100 | > 100 | > 100 | 34.1 | > 100 | > 100 | 92.7 | > 100 | 77.5 | > 100 | – | 47.7 | > 100 | > 100 | – |
| CCN(CC)c1ccc2cc(C(=O)Nc3nc(C45CC6CC(CC(C6)C4)C5)cs3)c(=O)oc2c1 | > 100 | > 100 | > 100 | > 100 | > 100 | > 100 | > 100 | > 100 | > 100 | > 100 | > 100 | > 100 | > 100 | > 100 | – | – | > 100 | > 100 | > 100 | > 100 |
| CC1(C)CCC[C@]2(C)[C@@H]1CC[C@@]13O[C@@H]1C1=C(CO)C(=O)OC1=C[C@@H]23 | 24.4 | > 100 | 12.8 | 63.7 | – | > 100 | 81.9 | 30.2 | 67.4 | 55.9 | 23.2 | – | 62.8 | 54.7 | 46.5 | 88.4 | 37.5 | 67.4 | 26 | 76.8 |
| O=C(Cn1c2ccc(Br)cc2c2nc3ccccc3nc21)N/N=C/c1ccccc1 | > 100 | > 100 | – | – | – | > 100 | > 100 | > 100 | – | – | > 100 | > 100 | – | > 100 | > 100 | > 100 | > 100 | > 100 | > 100 | > 100 |
| CC(C)(CC#N)c1cc(CC(C)(C)c2cc(CC(C)(C)c3cc(C(C)(C)C4(C)OCCO4)no3)no2)no1 | > 100 | > 100 | > 100 | > 100 | – | > 100 | 99.7 | > 100 | – | 91 | > 100 | > 100 | > 100 | > 100 | > 100 | 43.5 | > 100 | > 100 | > 100 | > 100 |
| CCOC(=O)/C(C[C@H]1OC(C)(C)O[C@@H]1[C@H]1COC(C)(C)O1)=N/O | > 100 | > 100 | > 100 | > 100 | > 100 | > 100 | > 100 | > 100 | > 100 | > 100 | > 100 | > 100 | > 100 | > 100 | > 100 | – | > 100 | > 100 | > 100 | > 100 |
| COc1cc2c(cc1C)NC(=O)/C2=C/c1c(Cl)n(-c2ccccc2)c2ccccc12 | > 100 | > 100 | 61.1 | 67.3 | 27.8 | > 100 | > 100 | – | 30.4 | – | > 100 | > 100 | 52.8 | > 100 | 69.7 | > 100 | 38.7 | 64.3 | > 100 | > 100 |
| CC(C)c1cccc(C(=O)NCCN(C)C)c1[N+](=O)[O-] | > 100 | > 100 | > 100 | > 100 | – | > 100 | > 100 | > 100 | > 100 | – | > 100 | > 100 | – | > 100 | > 100 | > 100 | > 100 | > 100 | > 100 | > 100 |
| COc1ccc([C@]23CCN(S(=O)(=O)c4ccc(C)cc4)[C@H]2[C@H](CO)C2(CC3)OCC(C)(C)CO2)cc1OC | > 100 | > 100 | > 100 | > 100 | > 100 | > 100 | > 100 | > 100 | > 100 | > 100 | > 100 | > 100 | > 100 | – | > 100 | > 100 | > 100 | > 100 | > 100 | > 100 |
| COc1cc2ccc1OCc1cccc(n1)COc1ccc(cc1OC)C=Nc1ccc(cc1)-c1ccc(cc1)N=C2 | > 100 | > 100 | > 100 | > 100 | > 100 | > 100 | > 100 | > 100 | > 100 | > 100 | – | > 100 | – | > 100 | > 100 | > 100 | > 100 | > 100 | > 100 | > 100 |
| O=C1CC(c2ccc(Cl)cc2)C2(C(=O)NC(=O)NC2=O)C(c2ccc(Cl)cc2)C1 (stereo not drawn) | – | > 75 | > 75 | > 75 | > 75 | > 75 | 34.8 | 36.4 | > 75 | > 75 | > 75 | > 75 | 32.6 | > 75 | – | > 75 | 67.4 | > 75 | > 75 | – |
| CCCCCCCCCCCCCCCC(=O)OC(COC(C)=O)CO[P+](=O)O (stereo not drawn) | 36.5 | 92.8 | – | 43.8 | 63.9 | > 100 | 50.5 | – | > 100 | > 100 | 38.6 | 44.4 | > 100 | 49.6 | – | 94 | > 100 | 45.3 | 97.1 | > 100 |
| Cc1sc(N)c(S(=O)(=O)c2ccccc2)c1C | > 100 | > 100 | > 100 | > 100 | – | > 100 | > 100 | > 100 | > 100 | > 100 | > 100 | > 100 | > 100 | > 100 | > 100 | > 100 | > 100 | > 100 | > 100 | > 100 |
| CC(=O)Oc1cc(C)c(OC(C)=O)c2c1[C@H]1CC[C@]3(C)[C@@H](OC(C)=O)CC[C@H]3[C@@H]1CC2 | 34.4 | 27.7 | 30.2 | 31.3 | 29.3 | 36.1 | 32.7 | – | 33.1 | – | 36 | 44.7 | 59.2 | 47.6 | – | 52.1 | 34.3 | 29.4 | 28.7 | 32.8 |
| COc1ccc(NS(=O)c2ccccc2OC)cc1 (stereo not drawn) | 79.8 | > 100 | > 100 | > 100 | > 100 | 67.3 | > 100 | 41.8 | > 100 | > 100 | > 100 | > 100 | > 100 | 39.6 | – | – | > 100 | 67.2 | 28.2 | – |
| C/C(=N\Nc1nc2ccccc2o1)c1cc(C)ncn1 | > 39 | 29.3 | > 100 | 35.3 | – | > 85.3 | 75 | – | 30.5 | 27.5 | 26.8 | 0.0519 | > 100 | – | 2.5 | 3.27 | > 100 | > 100 | 0.311 | > 100 |
| COc1cccc(NC(=O)CC(=O)N2N=C(C)C(N=Nc3ccc(S(=O)(=O)CCOS(=O)(=O)O)cc3)C2=O)c1 (stereo not drawn) | 41.1 | 15.7 | 13 | 12.1 | 4.25 | 5.71 | 25.6 | 27.1 | 17.9 | 62.5 | 44.9 | 15.5 | 21 | – | – | 15.5 | 12.7 | 17.9 | 24.5 | 22.7 |
| CCCC(=O)Oc1ccc2c(C)cc(=O)oc2c1OC(=O)CCC | > 100 | > 100 | > 100 | > 100 | > 100 | > 100 | > 100 | > 100 | – | > 100 | > 100 | > 100 | > 100 | > 100 | > 100 | > 100 | > 100 | > 100 | > 100 | > 100 |
| CCC(C)C(NC(=O)C1CCCN1C(=O)C(CC(C)C)NC(=O)C(CC(C)C)NC(=O)C(N)CC(C)C)C(=O)NC(C(=O)NCC(=O)NC(CC(N)=O)C(=O)NC(CC(C)C)C(=O)NC(CC(C)C)C(=O)NC(CC(C)C)C(N)=O)C(C)C (stereo not drawn) (H-LLLPIVGNLLL-NH2; configuration not given here) | > 50 | > 50 | > 50 | > 50 | > 50 | > 50 | > 50 | > 50 | – | > 50 | > 50 | > 50 | > 50 | > 50 | > 50 | – | > 50 | > 50 | > 50 | > 50 |
